From ChEMBL document CHEMBL1130242, “3 Beta-(4-ethyl-3-iodophenyl)nortropane-2 beta-carboxylic acid methyl ester as a high-affinity selective ligand for the serotonin transporter” (J Med Chem, 1997)

How the values were obtained:
[1] = target: Monoamine transporters; serotonin & dopamine (Rattus norvegicus) (UniProt P31652+P23977); assay: Selectivity ratio is IC50 value of 5-HTT to that of DAT; assay type: protein assay
[2] = target: Monoamine transporters; Norepininephrine & dopamine (Rattus norvegicus) (UniProt P23977+Q9WTR4); assay: Selectivity ratio is IC50 value of NET to that of DAT; assay type: protein assay
[3] = target: Norepinephrine transporter (Rattus norvegicus, UniProt Q9WTR4); assay: In vitro inhibitory activity against radioligand [3H]-[…] binding to norepinephrine transporter (NET) in rat cortical tissue
[4] = target: Sodium-dependent dopamine transporter (Rattus norvegicus, UniProt P23977); assay: In vitro inhibitory activity against radioligand [3H]-[…] binding to dopamine transporter (DAT) in rat striatal tissue; assay type: tissue-based, Striatum
[5] = target: Sodium-dependent serotonin transporter (Rattus norvegicus, UniProt P31652); assay: In vitro inhibitory activity against radioligand [3H]paroxetine binding to serotonin transporter (5-HTT) in rat midbrain tissue; assay type: tissue-based
Sodium-dependent serotonin transporter, sequence (P31652 whole entry): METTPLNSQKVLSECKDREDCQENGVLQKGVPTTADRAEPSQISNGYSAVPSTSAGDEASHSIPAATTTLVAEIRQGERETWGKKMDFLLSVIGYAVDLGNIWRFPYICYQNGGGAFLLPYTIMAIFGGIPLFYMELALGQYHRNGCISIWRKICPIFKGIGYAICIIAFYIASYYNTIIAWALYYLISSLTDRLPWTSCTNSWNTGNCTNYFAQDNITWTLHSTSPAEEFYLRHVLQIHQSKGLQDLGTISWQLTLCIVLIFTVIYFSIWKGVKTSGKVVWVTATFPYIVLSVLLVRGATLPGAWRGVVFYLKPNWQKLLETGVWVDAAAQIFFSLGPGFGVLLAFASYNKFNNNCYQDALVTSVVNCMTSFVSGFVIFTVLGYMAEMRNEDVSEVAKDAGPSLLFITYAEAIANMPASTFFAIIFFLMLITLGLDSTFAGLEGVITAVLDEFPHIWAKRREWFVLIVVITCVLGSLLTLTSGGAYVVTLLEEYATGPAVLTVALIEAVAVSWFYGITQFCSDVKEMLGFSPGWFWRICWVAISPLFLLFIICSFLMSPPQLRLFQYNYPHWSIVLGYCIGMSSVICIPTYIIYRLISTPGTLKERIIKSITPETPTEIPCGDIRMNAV

Sodium-dependent dopamine transporter, sequence (P23977 whole entry): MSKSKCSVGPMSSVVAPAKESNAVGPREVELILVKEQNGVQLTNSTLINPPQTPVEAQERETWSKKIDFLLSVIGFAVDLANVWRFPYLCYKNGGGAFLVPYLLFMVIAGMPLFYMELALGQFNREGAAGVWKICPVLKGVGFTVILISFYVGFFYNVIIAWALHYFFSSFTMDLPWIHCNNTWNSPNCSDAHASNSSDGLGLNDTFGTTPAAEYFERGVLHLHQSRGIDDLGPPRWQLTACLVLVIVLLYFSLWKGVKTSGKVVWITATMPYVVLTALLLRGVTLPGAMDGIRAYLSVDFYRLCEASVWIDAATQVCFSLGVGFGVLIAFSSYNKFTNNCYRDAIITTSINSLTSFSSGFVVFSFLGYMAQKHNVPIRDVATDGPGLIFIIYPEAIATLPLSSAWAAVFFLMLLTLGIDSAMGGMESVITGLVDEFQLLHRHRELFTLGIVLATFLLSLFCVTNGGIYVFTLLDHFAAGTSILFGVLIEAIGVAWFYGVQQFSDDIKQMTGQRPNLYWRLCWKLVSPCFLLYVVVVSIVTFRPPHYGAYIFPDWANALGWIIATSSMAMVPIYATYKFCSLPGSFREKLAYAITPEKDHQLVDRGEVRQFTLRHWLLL
Monoamine transporters; serotonin & dopamine (Rattus norvegicus), sequence (P23977 whole entry, looked up): as the sequence (P23977 whole entry) above
Monoamine transporters; serotonin & dopamine (Rattus norvegicus), sequence (P31652 whole entry, looked up): as the sequence (P31652 whole entry) above
Norepinephrine transporter, sequence (Q9WTR4 whole entry): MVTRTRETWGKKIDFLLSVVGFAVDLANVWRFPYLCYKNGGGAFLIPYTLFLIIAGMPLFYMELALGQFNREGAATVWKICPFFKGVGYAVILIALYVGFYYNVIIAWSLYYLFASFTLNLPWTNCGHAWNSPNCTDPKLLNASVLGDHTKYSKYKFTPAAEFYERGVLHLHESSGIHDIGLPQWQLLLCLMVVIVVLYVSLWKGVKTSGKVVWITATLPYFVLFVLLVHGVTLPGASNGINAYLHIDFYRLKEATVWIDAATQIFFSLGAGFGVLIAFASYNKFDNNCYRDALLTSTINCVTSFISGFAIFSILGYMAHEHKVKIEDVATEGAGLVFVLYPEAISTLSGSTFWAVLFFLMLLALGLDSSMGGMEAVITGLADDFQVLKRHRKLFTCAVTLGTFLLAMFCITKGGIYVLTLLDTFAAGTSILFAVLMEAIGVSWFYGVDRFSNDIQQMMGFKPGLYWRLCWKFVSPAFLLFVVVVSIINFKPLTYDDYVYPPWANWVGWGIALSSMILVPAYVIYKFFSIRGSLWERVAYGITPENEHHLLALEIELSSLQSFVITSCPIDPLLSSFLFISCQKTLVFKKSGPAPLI

Row | SMILES | Ratio [1] | Ratio [2] | IC50 [3] | IC50 [4] | IC50 [5]
1 | CCc1ccc(C2CC3CC[C@@H](N3)C2C(=O)OC)cc1 (some centres undefined) | 0.2 | 2.5 | – | – | –
2 | COC(=O)C1C(c2cccc(I)c2)CC2CC[C@H]1N2C (some centres undefined) | 1.5 | 61 | 1590 nM | 26 nM | 38.8 nM
3 | CCc1ccc(C2CC3CC[C@@H](N3)C2C(=O)OC)cc1I (some centres undefined) | 87 | 40 | 148 nM | 329 nM | –
4 | CCc1ccc(C2CC3CC[C@H](C2C(=O)OC)N3C)cc1 (some centres undefined) | 0.52 | 71 | 39 nM | – | –
5 | COC(=O)C1C(c2ccc(Cl)cc2)CC2CC[C@H]1N2 (some centres undefined) | 9 | 7 | 4.13 nM | 0.62 nM | 5.45 nM
